Experimental data: patent publication US7880007B2, “Bicyclic substituted phenyl piperidine modulators of muscarinic receptors” (Vertex Pharmaceuticals Incorporated, priority 2004, dated 2011)

Legend:
Format in all cases: cell-based
M3 muscarinic receptor = target: T1, M3 muscarinic receptor (Homo sapiens, UniProt P20309); experiment: Functional mobilization of intracellular calcium (FLIPR), M3-CHO cells; conditions: for Emax: 100% efficacy = maximum response obtained with the Carbachol control; for M3 Activity: M3-CHO cells, calcium mobilization (FLIPR)
T1 construct: expressed in transfected cells; host or cells: CHO (M3-CHO)
T1 sequence (P20309 whole entry): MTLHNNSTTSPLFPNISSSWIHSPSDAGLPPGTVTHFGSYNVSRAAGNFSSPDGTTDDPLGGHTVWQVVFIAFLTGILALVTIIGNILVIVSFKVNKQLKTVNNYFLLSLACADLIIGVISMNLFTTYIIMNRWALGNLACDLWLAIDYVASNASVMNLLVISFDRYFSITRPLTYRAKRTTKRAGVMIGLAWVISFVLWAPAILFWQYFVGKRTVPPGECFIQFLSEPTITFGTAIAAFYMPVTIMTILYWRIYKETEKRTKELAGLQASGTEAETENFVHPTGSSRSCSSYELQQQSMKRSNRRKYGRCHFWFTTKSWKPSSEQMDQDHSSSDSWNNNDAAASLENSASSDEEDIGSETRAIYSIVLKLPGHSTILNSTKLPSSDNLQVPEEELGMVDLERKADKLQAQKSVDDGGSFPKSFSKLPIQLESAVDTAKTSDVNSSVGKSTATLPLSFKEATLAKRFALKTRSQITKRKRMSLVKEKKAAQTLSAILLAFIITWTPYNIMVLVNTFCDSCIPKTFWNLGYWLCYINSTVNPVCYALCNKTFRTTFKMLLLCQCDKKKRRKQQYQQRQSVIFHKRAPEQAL
Outline: (§1)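 FLIPR fluorescence (ex 488, em 540 nm) recorded 60 sec after compound addition to dye-loaded CHO cells. Agonist mode: compound alone. Antagonist mode: 15 min compound pre-incubation, then carbachol at EC80, or co-application. Efficacy expressed as % of maximal carbachol response.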

M4 muscarinic receptor = target: T2, M4 muscarinic receptor (Homo sapiens, UniProt P08173); experiment: Functional mobilization of intracellular calcium (FLIPR), M4-CHO cells; conditions: for Emax: 100% efficacy = maximum response obtained with the Carbachol control; for M4 Activity: M4-CHO cells, calcium mobilization (FLIPR)
T2 construct: expressed in transfected cells; host or cells: CHO (M4-CHO)
T2 sequence (P08173 1-479): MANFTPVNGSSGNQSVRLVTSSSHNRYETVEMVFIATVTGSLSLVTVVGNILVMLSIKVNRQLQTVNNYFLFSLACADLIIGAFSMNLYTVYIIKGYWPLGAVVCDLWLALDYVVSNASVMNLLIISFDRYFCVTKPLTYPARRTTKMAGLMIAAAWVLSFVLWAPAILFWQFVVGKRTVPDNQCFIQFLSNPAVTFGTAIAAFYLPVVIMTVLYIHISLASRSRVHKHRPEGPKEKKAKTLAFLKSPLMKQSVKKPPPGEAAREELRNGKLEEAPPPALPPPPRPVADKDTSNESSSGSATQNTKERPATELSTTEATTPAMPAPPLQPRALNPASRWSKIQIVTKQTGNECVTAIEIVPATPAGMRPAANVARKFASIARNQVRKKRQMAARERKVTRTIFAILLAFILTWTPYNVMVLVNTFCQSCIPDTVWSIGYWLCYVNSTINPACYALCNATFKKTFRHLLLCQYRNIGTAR
Outline: as §1

M2 muscarinic receptor = target: T3, M2 muscarinic receptor (Homo sapiens, UniProt P08172); experiment: Functional mobilization of intracellular calcium (FLIPR), M2-CHO cells; conditions: for Emax: 100% efficacy = maximum response obtained with the Carbachol control; for M2 Activity: M2-CHO cells, calcium mobilization (FLIPR)
T3 construct: expressed in transfected cells; host or cells: CHO (M2-CHO)
T3 sequence (P08172 1-466): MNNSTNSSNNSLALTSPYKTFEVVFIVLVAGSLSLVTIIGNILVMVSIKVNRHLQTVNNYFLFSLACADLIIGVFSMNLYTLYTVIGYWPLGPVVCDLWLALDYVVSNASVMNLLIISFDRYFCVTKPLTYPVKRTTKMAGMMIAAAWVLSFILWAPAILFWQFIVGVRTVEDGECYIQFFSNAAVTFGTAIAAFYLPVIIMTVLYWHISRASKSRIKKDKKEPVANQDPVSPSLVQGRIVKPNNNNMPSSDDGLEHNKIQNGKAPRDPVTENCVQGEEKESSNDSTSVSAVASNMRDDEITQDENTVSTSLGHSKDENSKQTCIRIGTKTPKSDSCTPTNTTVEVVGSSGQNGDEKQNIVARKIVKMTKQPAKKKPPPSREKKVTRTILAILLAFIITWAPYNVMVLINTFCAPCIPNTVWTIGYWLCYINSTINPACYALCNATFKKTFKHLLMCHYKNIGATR
Outline: as §1

M1 muscarinic receptor = target: T4, M1 muscarinic receptor (Homo sapiens, UniProt P11229); experiment: Functional mobilization of intracellular calcium (FLIPR), M1-CHO cells; conditions: for Emax: 100% efficacy = maximum response obtained with the Carbachol control; for M1 Activity: M1-CHO cells, calcium mobilization (FLIPR)
T4 construct: expressed in transfected cells; host or cells: CHO (M1-CHO)
T4 sequence (P11229 1-460): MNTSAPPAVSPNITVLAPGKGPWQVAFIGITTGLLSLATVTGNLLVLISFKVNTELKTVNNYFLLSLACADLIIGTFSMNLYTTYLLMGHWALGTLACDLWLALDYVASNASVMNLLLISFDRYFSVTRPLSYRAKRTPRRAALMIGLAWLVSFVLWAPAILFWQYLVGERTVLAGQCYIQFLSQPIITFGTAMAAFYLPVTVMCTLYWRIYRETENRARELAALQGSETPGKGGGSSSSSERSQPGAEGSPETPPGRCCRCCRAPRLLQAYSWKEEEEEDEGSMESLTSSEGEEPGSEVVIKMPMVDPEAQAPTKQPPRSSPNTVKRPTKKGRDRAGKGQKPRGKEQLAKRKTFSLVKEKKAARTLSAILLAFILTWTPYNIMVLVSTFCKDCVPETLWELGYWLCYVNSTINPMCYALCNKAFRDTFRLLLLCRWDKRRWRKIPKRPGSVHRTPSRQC
Outline: as §1

Compound	Emax (M3 muscarinic receptor) [%]	M3 Activity (M3 muscarinic receptor)	Emax (M4 muscarinic receptor) [%]	M4 Activity (M4 muscarinic receptor)	Emax (M2 muscarinic receptor) [%]	M2 Activity (M2 muscarinic receptor)	Emax (M1 muscarinic receptor) [%]	M1 Activity (M1 muscarinic receptor)
CCOC(=O)N1CCC(CN2CCC(OC)(c3cc(F)ccc3OC)CC2)CC1 [Compound 295]	< 25	+ (activity was measured to be greater than 5.0 μM)	25 to 100	+++ (activity was measured to be less than 1.0 μM)	25 to 100	++ (activity was measured to be from 1.0 μM to 5.0 μM)	25 to 100	+++ (activity was measured to be less than 1.0 μM)
COc1ccc(C(F)(F)F)cc1C1CCN(C2C[C@H]3CC[C@H]2C3)CC1 (some centres unmarked) [Compound 296]	< 25	+ (activity was measured to be greater than 5.0 μM)	25 to 100	++ (activity was measured to be from 1.0 μM to 5.0 μM)	< 25	+ (activity was measured to be greater than 5.0 μM)	25 to 100	++ (activity was measured to be from 1.0 μM to 5.0 μM)
CCOC(=O)N1CCC(CN2CCC(c3cc(-c4ccc5c(c4)OCO5)ccc3OC)CC2)CC1 [Compound 297]	< 25	+ (activity was measured to be greater than 5.0 μM)	25 to 100	++ (activity was measured to be from 1.0 μM to 5.0 μM)	< 25	+ (activity was measured to be greater than 5.0 μM)	25 to 100	++ (activity was measured to be from 1.0 μM to 5.0 μM)
CCOC(=O)N1CCC(CN2CCC(c3cc(-c4ccc(C(=O)NC)c(Cl)c4)ccc3OC)CC2)CC1 [Compound 298]	< 25	+ (activity was measured to be greater than 5.0 μM)	25 to 100	+++ (activity was measured to be less than 1.0 μM)	< 25	+ (activity was measured to be greater than 5.0 μM)	25 to 100	++ (activity was measured to be from 1.0 μM to 5.0 μM)
COc1ccc(Cl)cc1C1CCN(C2(C)CCCCC2)CC1 [Compound 300, 4-(5-chloro-2-methoxyphenyl)-1-(1-methylcyclo-hexyl)piperidine]	< 25	+ (activity was measured to be greater than 5.0 μM)	25 to 100	+++ (activity was measured to be less than 1.0 μM)	25 to 100	++ (activity was measured to be from 1.0 μM to 5.0 μM)	25 to 100	++ (activity was measured to be from 1.0 μM to 5.0 μM)
Cc1ccccc1-c1ccccc1C1CCN([C@H]2C[C@H]3CC[C@H]2C3)CC1 [Compound 302]	< 25	+ (activity was measured to be greater than 5.0 μM)	25 to 100	++ (activity was measured to be from 1.0 μM to 5.0 μM)	< 25	+ (activity was measured to be greater than 5.0 μM)	< 25	+ (activity was measured to be greater than 5.0 μM)
COc1c(F)cc(F)cc1C1CCN(C2CCOCC2)CC1 [Compound 305]	< 25	+ (activity was measured to be greater than 5.0 μM)	25 to 100	++ (activity was measured to be from 1.0 μM to 5.0 μM)	< 25	+ (activity was measured to be greater than 5.0 μM)	< 25	+ (activity was measured to be greater than 5.0 μM)
CCOC(=O)N1CCC(CN2CCC(c3ccccc3C)CC2)CC1 [Compound 306]	25 to 100	+++ (activity was measured to be less than 1.0 μM)	25 to 100	+++ (activity was measured to be less than 1.0 μM)	25 to 100	+++ (activity was measured to be less than 1.0 μM)	25 to 100	+++ (activity was measured to be less than 1.0 μM)
COc1ccccc1C1CCN(CC2CC3C=CC2C3)CC1 (centres unmarked) [Compound 307]	–	+ (activity was measured to be greater than 5.0 μM)	25 to 100	+++ (activity was measured to be less than 1.0 μM)	25 to 100	+ (activity was measured to be greater than 5.0 μM)	25 to 100	++ (activity was measured to be from 1.0 μM to 5.0 μM)
COc1ccc(Cl)cc1C1(F)CCN([C@@H]2C[C@H]3CC[C@H]2C3)CC1 [Compound 309]	< 25	+ (activity was measured to be greater than 5.0 μM)	25 to 100	++ (activity was measured to be from 1.0 μM to 5.0 μM)	25 to 100	++ (activity was measured to be from 1.0 μM to 5.0 μM)	25 to 100	+ (activity was measured to be greater than 5.0 μM)
COc1cc(F)c(F)c(C2CCN(C3CC4CCC(C4)C3)CC2)c1 (centres unmarked) [Compound 310]	< 25	+ (activity was measured to be greater than 5.0 μM)	25 to 100	+++ (activity was measured to be less than 1.0 μM)	< 25	+ (activity was measured to be greater than 5.0 μM)	< 25	+ (activity was measured to be greater than 5.0 μM)
COc1c(F)cc(F)cc1C1CCN(C2CC3CCC(C3)C2)CC1 (centres unmarked) [Compound 311]	< 25	+ (activity was measured to be greater than 5.0 μM)	25 to 100	+++ (activity was measured to be less than 1.0 μM)	< 25	+ (activity was measured to be greater than 5.0 μM)	< 25	+ (activity was measured to be greater than 5.0 μM)
COc1ccc(-c2ccc(C(=O)Nc3nccs3)cc2)cc1C1CCN(C2CC3CCC(C3)C2)CC1 (centres unmarked) [Compound 313]	< 25	+ (activity was measured to be greater than 5.0 μM)	< 25	+ (activity was measured to be greater than 5.0 μM)	< 25	+ (activity was measured to be greater than 5.0 μM)	< 25	+ (activity was measured to be greater than 5.0 μM)
COc1ccc(F)cc1C1(F)CCN(C2CCOCC2)CC1 [Compound 314]	< 25	+ (activity was measured to be greater than 5.0 μM)	25 to 100	+ (activity was measured to be greater than 5.0 μM)	< 25	+ (activity was measured to be greater than 5.0 μM)	< 25	+ (activity was measured to be greater than 5.0 μM)
CCOC(=O)N1C2CCC1CC(N1CCC(c3cc(-c4ccc(C#N)cc4)ccc3OC)CC1)C2 (centres unmarked) [Compound 317]	< 25	+ (activity was measured to be greater than 5.0 μM)	25 to 100	++ (activity was measured to be from 1.0 μM to 5.0 μM)	< 25	+ (activity was measured to be greater than 5.0 μM)	25 to 100	++ (activity was measured to be from 1.0 μM to 5.0 μM)
